Patent US20100240746A1, “STEREOISOMERS OF TRICYCLODECAN-9-YL-XANTHOGENATE” (LUMAVITA AG, priority 2007, published 2010)
≈ marks a conversion by molar mass, not a printed value.

What was measured:
[1] = system: herpes simplex virus type 2; assay: HSV-2 inhibition in Calu-6 cells, plaque titration on RITA cells; type: cell-based; conditions: Human alphaherpesvirus 2, Calu-6; 48 hr, 50 plaque forming units per well
Method: (§1) Calu-6 cells and RITA cells were grown in DMEM cell culture medium containing 10% fetal calf serum in CO2 incubator under 5% CO2 at 37° C. with 100% humidity.
For HSV-2 inhibition, Calu-6 cells were seeded in 96 well plates at a density of 3×10^6 cells per plate in the DMEM cell culture medium. The plates were incubated at 37° C. in the presence of 5% CO2 for 24 hr. The DMEM cell culture medium in the plates was removed and the cells were infected with Herpes simplex virus type-2 at 50 plaque forming units per well. After incubation at 37° C. for 60 min, test compounds in DMEM cell culture medium at a series of concentrations were added. The plates were incubated at 37° C. in the presence of 5% CO2 for 48 hr. The plates were frozen at −20° C. prior to further analysis. After thawing at room temperature, supernatants containing infectious virus particles were prepared by centrifuging the supernatant from each well at 18,000 g at 4° C. for 5 min. The supernatant was further diluted before assay.
RITA cells were seeded in 24 well Linbra plates at a density of 4×10^6 cells per plate in 2 mL of DMEM cell culture medium. The plates were incubated at 37° C. in the presence of 5% CO2 for 24 hr. […] The number of plaques was determined macroscopically. […] The therapeutic index was also calculated for each compound by dividing LD50 with IC50.

[2] = biological target: T1, phosphatidylcholine-specific phospholipase C (PC-PLC) (Bacillus cereus, UniProt P09598); assay: Amplex Red phosphatidylcholine-specific phospholipase C (PC-PLC) inhibition assay; type: biochemical, B. cereus; conditions: 30 min at 37° C., triplicate; read-out: IC50 (converted)
T1 construct: purchased Invitrogen
Method: The inhibitory activities of optically active potassium salts of (+)- and (−)-O-exo/C-exo-tricyclo [5.2.1.0^2,6]-dec-9-yl-xanthic acid 1A ((+)- and (−)-enantiomers 1A) against phosphatidylcholine-specific phospholipase C were evaluated, together with D609 and potassium salt of racemic O-exo/C-exo xanthic acid 1A (racemic 1A), using Amplex Red phosphatidylcholine-specific phospholipase C(PC-PLC) assay kit, which was obtained from Invitrogen (Calsbad, Calif.). D609 was obtained from Sigma Aldrich.
An Amplex Red stock solution (˜20 mM), a working reaction buffer, and a horseradish peroxidase stock solution (200 U/mL), a H2O2 working solution (20 mM), a choline oxidate stock solution (20 U/mL), an alkaline phosphatase stock solution (400 U/mL), and a B. cereus PC-PLC stock solution (10 U/mL) were prepared according to the instruction of the assay kit. The stock solution (100 mg/mL) for each test compound was also prepared by dissolving the compound in water 2 hr prior to the start of the experiment.
A working Amplex Red/HRP/lecithin solution was prepared by adding 200 μL of Amplex Red reagent stock solution, 100 μL of HRP stock solution, 200 μL of alkaline phosphatase stock solution, 100 μL of choline oxidase stock solution, and 78 μL of the lecithin solution to […] of the working reaction buffer. PC-PLC solution (0.2 U/mL) was prepared by diluting the PC-PLC stock solution with the working reaction buffer to the desired concentration.
The test compound (25 μL) at a serious of concentrations was pipetted into a 96 well plate. For uninhibited PC-PLC controls and non-PC-PLC controls, 25 μL of water was added. After the addition of 50 μL of the Amplex Red/HRP/lecithin working solution, the reaction was initiated by adding 25 μL of PC-PLC solution to each well. To the non-PC-PLC controls, 25 μL of water was added instead of PC-PLC solution. The experiment was performed in triplicate. The reactions were protected from light. After incubated for 30 min at 37° C., the reactions were measured with a fluorescence microplate reader using excitation at 550 nm and emission detection at 590 nm. The fluorescent data obtained were corrected for background fluorescence by subtracting the values obtained from the non-PC-PLC controls.

[3] = system: bovine papilloma virus type I (BPV-1)-transformed HEF (HEF-BPV); assay: BPV-infected hamster embryo fibroblasts (HEF) cell proliferation assay; type: cell-based; conditions: 72 hr incubation
Method: Briefly, hamster embryo fibroblasts and bovine papilloma virus type I (BPV-1)-transformed HEF (HEF-BPV) were grown in Eagle's basal medium. […] and HEF cells were seeded in 96-well plates at a density of 0.5×10^6 cells per plate in DMEM cell culture medium containing 10% fetal calf serum at pH 6.8. The plates were then incubated in the presence of 5% CO2 in 100% humidity at 37° C. After 6 hr, the cell culture medium in the plates was exchanged with fresh DMEM cell culture medium containing test compounds at a series of concentrations. The plates were incubated at 37° C. for additional 72 hr. Cells in the plates were then washed with PBS, fixed with 3% formaldehyde solution containing 0.9% NaCl for 1 min, washed by water for 10 sec, and dried overnight. For detection, the plates were stained with crystal violet solution for 5 min at room temperature, washed 5 times with water, and dried at room temperature overnight. After adding ethanol/acetic acid (99:1, v/v, […]) to each well, the plates were measured at 595 nm using an ELISA reader.

Calu-6 cells = assay: Cytotoxicity assay in Calu-6 cells (crystal violet); type: cell-based; conditions: 48 hr
Method: as §1
For cytotoxicity assay, Calu-6 cells were seeded in 96 well plates at a density of 3×10^6 cells per plate in the DMEM cell culture medium. The plates were incubated at 37° C. in the presence of 5% CO2 for 24 hr. The DMEM cell culture medium in the plates was exchanged with fresh DMEM cell culture medium containing test compounds at a series of concentrations. The plates were incubated at 37° C. in the presence of 5% CO2 for 48 hr. The plates were then washed with PBS, fixed with 3% formaldehyde solution containing 0.9% NaCl for 1 min, washed by water for 10 sec, and dried overnight. For detection, the plates were stained with crystal violet solution for 5 min at room temperature, washed 5 times with water, and dried at room temperature overnight. After adding ethanol/acetic acid (99:1, v/v, […]) to each well, the plates were measured at 595 nm using an ELISA reader. A dose response curve was obtained for each compound tested by plotting the mean values of the optical densities against compound concentration.

T1 sequence (P09598 39-283 limits assumed): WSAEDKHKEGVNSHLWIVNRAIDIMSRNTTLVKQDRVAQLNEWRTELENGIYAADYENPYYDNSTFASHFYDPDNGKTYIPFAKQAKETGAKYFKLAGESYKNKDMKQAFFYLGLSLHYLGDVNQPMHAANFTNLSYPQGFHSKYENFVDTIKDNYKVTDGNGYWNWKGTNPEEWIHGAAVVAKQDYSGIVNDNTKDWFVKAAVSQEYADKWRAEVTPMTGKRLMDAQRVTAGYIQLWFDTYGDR

SMILES: S=C(S)O[C@@H]1C[C@@H]2C[C@H]1[C@H]1CCC[C@@H]21 (racemic) [Racemic 1A, racemic O-exo/C-exo xanthic acid 1A, reference compound]
- IC50 [1]: 17.2 ± 5.95 µg/mL (≈ 75.2 µM)
- IC50 [2]: 44 µM
- IC50 [3]: 14.55 ± 0.07 µg/mL (≈ 63.7 µM)
- LD50 (Calu-6 cells): 96.93 ± 7.12 µg/mL
